Test system: lung function
Assay: Example 1: percent predicted FEV1 change from baseline
Format: in vivo, human
Method: Change From Baseline in Percent Predicted Forced Expiratory Volume in 1 Second (FEV1) at Each Specified Time Points. FEV1 was the volume of air exhaled from the lungs in the first second of a forced expiration as measured by spirometer. Baseline value was defined as valid and last non-missing value obtained within 28 days prior to participant receiving first study medication. EOT visit was performed within 3 days after the participant's last dose of study drug. […] Analysis was performed on mITT population. Here, ‘number analyzed’=participants with available data for each specified category. Here, ‘O’ in the number analyzed field signifies that none of the participants were available for the analysis at the specified time points.

## CC(C)NC(=O)COc1cccc(-c2nc(Nc3ccc4[nH]ncc4c3)c3ccccc3n2)c1 [Belumosudil, 2-{3-[4-(1H-indazol-5-ylamino)-2-quinazolinyl]phenoxy}-N-(propan-2-yl) acetamide]
Cohort 1: 200 mg QD, Cycle 3, Day 1
  Change From Baseline in Percent Predicted Forced Expiratory Volume in 1 Second (FEV1), Mean (Standard Deviation): 1.1 (4.8) percent predicted FEV1
Cohort 1: 200 mg QD, Cycle 5, Day 1
  Change From Baseline in Percent Predicted Forced Expiratory Volume in 1 Second (FEV1), Mean (Standard Deviation): −3.3 (8.0) percent predicted FEV1
Cohort 1: 200 mg QD, Cycle 7, Day 1
  Change From Baseline in Percent Predicted Forced Expiratory Volume in 1 Second (FEV1), Mean (Standard Deviation): −3.5 (4.6) percent predicted FEV1
Cohort 1: 200 mg QD, Cycle 9, Day 1
  Change From Baseline in Percent Predicted Forced Expiratory Volume in 1 Second (FEV1), Mean (Standard Deviation): −1.7 (6.8) percent predicted FEV1
Cohort 1: 200 mg QD, Cycle 11, Day 1
  Change From Baseline in Percent Predicted Forced Expiratory Volume in 1 Second (FEV1), Mean (Standard Deviation): −4.3 (5.2) percent predicted FEV1
Cohort 1: 200 mg QD, Cycle 12, Day 1
  Change From Baseline in Percent Predicted Forced Expiratory Volume in 1 Second (FEV1), Mean (Standard Deviation): −2.0 (—) percent predicted FEV1
Cohort 1: 200 mg QD, Cycle 13, Day 1
  Change From Baseline in Percent Predicted Forced Expiratory Volume in 1 Second (FEV1), Mean (Standard Deviation): −5.9 (9.3) percent predicted FEV1
Cohort 1: 200 mg QD, Cycle 14, Day 1
  Change From Baseline in Percent Predicted Forced Expiratory Volume in 1 Second (FEV1), Mean (Standard Deviation): 2.0 (—) percent predicted FEV1
Cohort 1: 200 mg QD, Cycle 15, Day 1
  Change From Baseline in Percent Predicted Forced Expiratory Volume in 1 Second (FEV1), Mean (Standard Deviation): −6.7 (11.7) percent predicted FEV1
Cohort 1: 200 mg QD, Cycle 16, Day 1
  Change From Baseline in Percent Predicted Forced Expiratory Volume in 1 Second (FEV1), Mean (Standard Deviation): 2.0 (—) percent predicted FEV1
Cohort 1: 200 mg QD, Cycle 17, Day 1
  Change From Baseline in Percent Predicted Forced Expiratory Volume in 1 Second (FEV1), Mean (Standard Deviation): −5.3 (9.1) percent predicted FEV1
Cohort 1: 200 mg QD, Cycle 19, Day 1
  Change From Baseline in Percent Predicted Forced Expiratory Volume in 1 Second (FEV1), Mean (Standard Deviation): −5.2 (9.9) percent predicted FEV1
Cohort 1: 200 mg QD, Cycle 25, Day 1
  Change From Baseline in Percent Predicted Forced Expiratory Volume in 1 Second (FEV1), Mean (Standard Deviation): −11.0 (15.6) percent predicted FEV1
Cohort 1: 200 mg QD, Cycle 26, Day 1
  Change From Baseline in Percent Predicted Forced Expiratory Volume in 1 Second (FEV1), Mean (Standard Deviation): 0.0 (—) percent predicted FEV1
Cohort 1: 200 mg QD, Cycle 27, Day 1
  Change From Baseline in Percent Predicted Forced Expiratory Volume in 1 Second (FEV1), Mean (Standard Deviation): −6.5 (13.4) percent predicted FEV1
Cohort 1: 200 mg QD, Cycle 29, Day 1
  Change From Baseline in Percent Predicted Forced Expiratory Volume in 1 Second (FEV1), Mean (Standard Deviation): −0.5 (9.2) percent predicted FEV1
Cohort 1: 200 mg QD, Cycle 30, Day 1
  Change From Baseline in Percent Predicted Forced Expiratory Volume in 1 Second (FEV1), Mean (Standard Deviation): 3.0 (—) percent predicted FEV1
Cohort 1: 200 mg QD, Cycle 31, Day 1
  Change From Baseline in Percent Predicted Forced Expiratory Volume in 1 Second (FEV1), Mean (Standard Deviation): −3.5 (12.0) percent predicted FEV1
Cohort 1: 200 mg QD, Cycle 32, Day 1
  Change From Baseline in Percent Predicted Forced Expiratory Volume in 1 Second (FEV1), Mean (Standard Deviation): 1.0 (—) percent predicted FEV1
Cohort 1: 200 mg QD, Cycle 33, Day 1
  Change From Baseline in Percent Predicted Forced Expiratory Volume in 1 Second (FEV1), Mean (Standard Deviation): 5.0 (5.7) percent predicted FEV1
Cohort 1: 200 mg QD, Cycle 34, Day 1
  Change From Baseline in Percent Predicted Forced Expiratory Volume in 1 Second (FEV1), Mean (Standard Deviation): 2.0 (—) percent predicted FEV1
Cohort 1: 200 mg QD, Cycle 35, Day 1
  Change From Baseline in Percent Predicted Forced Expiratory Volume in 1 Second (FEV1), Mean (Standard Deviation): 5.0 (0.0) percent predicted FEV1
Cohort 1: 200 mg QD, Cycle 36, Day 1
  Change From Baseline in Percent Predicted Forced Expiratory Volume in 1 Second (FEV1), Mean (Standard Deviation): 3.0 (—) percent predicted FEV1
Cohort 1: 200 mg QD, Cycle 37, Day 1
  Change From Baseline in Percent Predicted Forced Expiratory Volume in 1 Second (FEV1), Mean (Standard Deviation): −1.0 (—) percent predicted FEV1
Cohort 1: 200 mg QD, Cycle 38, Day 1
  Change From Baseline in Percent Predicted Forced Expiratory Volume in 1 Second (FEV1), Mean (Standard Deviation): 1.0 (—) percent predicted FEV1
Cohort 1: 200 mg QD, Cycle 39, Day 1
  Change From Baseline in Percent Predicted Forced Expiratory Volume in 1 Second (FEV1), Mean (Standard Deviation): 10.0 (2.8) percent predicted FEV1
Cohort 1: 200 mg QD, Cycle 40, Day 1
  Change From Baseline in Percent Predicted Forced Expiratory Volume in 1 Second (FEV1), Mean (Standard Deviation): −1.0 (—) percent predicted FEV1
Cohort 1: 200 mg QD, Cycle 41, Day 1
  Change From Baseline in Percent Predicted Forced Expiratory Volume in 1 Second (FEV1), Mean (Standard Deviation): 15.0 (—) percent predicted FEV1
Cohort 1: 200 mg QD, Cycle 43, Day 1
  Change From Baseline in Percent Predicted Forced Expiratory Volume in 1 Second (FEV1), Mean (Standard Deviation): 16.0 (—) percent predicted FEV1
Cohort 1: 200 mg QD, Cycle 47, Day 1
  Change From Baseline in Percent Predicted Forced Expiratory Volume in 1 Second (FEV1), Mean (Standard Deviation): 5.0 (—) percent predicted FEV1
Cohort 1: 200 mg QD, Cycle 48, Day 1
  Change From Baseline in Percent Predicted Forced Expiratory Volume in 1 Second (FEV1), Mean (Standard Deviation): 3.0 (—) percent predicted FEV1
Cohort 1: 200 mg QD, Cycle 49, Day 1
  Change From Baseline in Percent Predicted Forced Expiratory Volume in 1 Second (FEV1), Mean (Standard Deviation): 8.0 (—) percent predicted FEV1
Cohort 1: 200 mg QD, Cycle 51, Day 1
  Change From Baseline in Percent Predicted Forced Expiratory Volume in 1 Second (FEV1), Mean (Standard Deviation): 8.0 (—) percent predicted FEV1
Cohort 1: 200 mg QD, Cycle 52, Day 1
  Change From Baseline in Percent Predicted Forced Expiratory Volume in 1 Second (FEV1), Mean (Standard Deviation): 0.0 (—) percent predicted FEV1
Cohort 1: 200 mg QD, Cycle 53, Day 1
  Change From Baseline in Percent Predicted Forced Expiratory Volume in 1 Second (FEV1), Mean (Standard Deviation): 9.0 (—) percent predicted FEV1
Cohort 1: 200 mg QD, Cycle 54, Day 1
  Change From Baseline in Percent Predicted Forced Expiratory Volume in 1 Second (FEV1), Mean (Standard Deviation): 4.0 (—) percent predicted FEV1
Cohort 1: 200 mg QD, Cycle 55, Day 1
  Change From Baseline in Percent Predicted Forced Expiratory Volume in 1 Second (FEV1), Mean (Standard Deviation): 13.0 (—) percent predicted FEV1
Cohort 1: 200 mg QD, Cycle 56, Day 1
  Change From Baseline in Percent Predicted Forced Expiratory Volume in 1 Second (FEV1), Mean (Standard Deviation): 4.0 (—) percent predicted FEV1
Cohort 1: 200 mg QD, Cycle 57, Day 1
  Change From Baseline in Percent Predicted Forced Expiratory Volume in 1 Second (FEV1), Mean (Standard Deviation): 13.0 (—) percent predicted FEV1
Cohort 1: 200 mg QD, Cycle 58, Day 1
  Change From Baseline in Percent Predicted Forced Expiratory Volume in 1 Second (FEV1), Mean (Standard Deviation): 5.0 (—) percent predicted FEV1
Cohort 1: 200 mg QD, Cycle 60, Day 1
  Change From Baseline in Percent Predicted Forced Expiratory Volume in 1 Second (FEV1), Mean (Standard Deviation): 4.0 (—) percent predicted FEV1
Cohort 1: 200 mg QD, Cycle 61, Day 1
  Change From Baseline in Percent Predicted Forced Expiratory Volume in 1 Second (FEV1), Mean (Standard Deviation): 10.0 (—) percent predicted FEV1
Cohort 1: 200 mg QD, Cycle 62, Day 1
  Change From Baseline in Percent Predicted Forced Expiratory Volume in 1 Second (FEV1), Mean (Standard Deviation): 2.0 (—) percent predicted FEV1
Cohort 1: 200 mg QD, Cycle 63, Day 1
  Change From Baseline in Percent Predicted Forced Expiratory Volume in 1 Second (FEV1), Mean (Standard Deviation): 13.0 (—) percent predicted FEV1
Cohort 1: 200 mg QD, Cycle 67, Day 1
  Change From Baseline in Percent Predicted Forced Expiratory Volume in 1 Second (FEV1), Mean (Standard Deviation): 14.0 (—) percent predicted FEV1
Cohort 1: 200 mg QD, EOT
  Change From Baseline in Percent Predicted Forced Expiratory Volume in 1 Second (FEV1), Mean (Standard Deviation): −1.4 (9.0) percent predicted FEV1
Cohort 2: 200 mg BID, Cycle 3, Day 1
  Change From Baseline in Percent Predicted Forced Expiratory Volume in 1 Second (FEV1), Mean (Standard Deviation): −1.8 (7.1) percent predicted FEV1
Cohort 2: 200 mg BID, Cycle 5, Day 1
  Change From Baseline in Percent Predicted Forced Expiratory Volume in 1 Second (FEV1), Mean (Standard Deviation): −5.0 (6.5) percent predicted FEV1
Cohort 2: 200 mg BID, Cycle 7, Day 1
  Change From Baseline in Percent Predicted Forced Expiratory Volume in 1 Second (FEV1), Mean (Standard Deviation): −2.6 (9.4) percent predicted FEV1
Cohort 2: 200 mg BID, Cycle 8, Day 1
  Change From Baseline in Percent Predicted Forced Expiratory Volume in 1 Second (FEV1), Mean (Standard Deviation): 1.0 (—) percent predicted FEV1
Cohort 2: 200 mg BID, Cycle 9, Day 1
  Change From Baseline in Percent Predicted Forced Expiratory Volume in 1 Second (FEV1), Mean (Standard Deviation): −5.9 (11.7) percent predicted FEV1
Cohort 2: 200 mg BID, Cycle 10, Day 1
  Change From Baseline in Percent Predicted Forced Expiratory Volume in 1 Second (FEV1), Mean (Standard Deviation): −6.0 (8.5) percent predicted FEV1
Cohort 2: 200 mg BID, Cycle 11, Day 1
  Change From Baseline in Percent Predicted Forced Expiratory Volume in 1 Second (FEV1), Mean (Standard Deviation): −4.0 (8.5) percent predicted FEV1
Cohort 2: 200 mg BID, Cycle 12, Day 1
  Change From Baseline in Percent Predicted Forced Expiratory Volume in 1 Second (FEV1), Mean (Standard Deviation): −1.0 (—) percent predicted FEV1
Cohort 2: 200 mg BID, Cycle 13, Day 1
  Change From Baseline in Percent Predicted Forced Expiratory Volume in 1 Second (FEV1), Mean (Standard Deviation): −2.5 (14.7) percent predicted FEV1
Cohort 2: 200 mg BID, Cycle 14, Day 1
  Change From Baseline in Percent Predicted Forced Expiratory Volume in 1 Second (FEV1), Mean (Standard Deviation): 0.0 (—) percent predicted FEV1
Cohort 2: 200 mg BID, Cycle 15, Day 1
  Change From Baseline in Percent Predicted Forced Expiratory Volume in 1 Second (FEV1), Mean (Standard Deviation): −2.3 (5.1) percent predicted FEV1
Cohort 2: 200 mg BID, Cycle 16, Day 1
  Change From Baseline in Percent Predicted Forced Expiratory Volume in 1 Second (FEV1), Mean (Standard Deviation): −8.0 (15.6) percent predicted FEV1
Cohort 2: 200 mg BID, Cycle 17, Day 1
  Change From Baseline in Percent Predicted Forced Expiratory Volume in 1 Second (FEV1), Mean (Standard Deviation): −6.0 (7.2) percent predicted FEV1
Cohort 2: 200 mg BID, Cycle 18, Day 1
  Change From Baseline in Percent Predicted Forced Expiratory Volume in 1 Second (FEV1), Mean (Standard Deviation): −7.5 (10.6) percent predicted FEV1
Cohort 2: 200 mg BID, Cycle 19, Day 1
  Change From Baseline in Percent Predicted Forced Expiratory Volume in 1 Second (FEV1), Mean (Standard Deviation): −6.3 (5.5) percent predicted FEV1
Cohort 2: 200 mg BID, Cycle 25, Day 1
  Change From Baseline in Percent Predicted Forced Expiratory Volume in 1 Second (FEV1), Mean (Standard Deviation): −12.5 (3.5) percent predicted FEV1

Source: patent publication US20260027116A1, “Methods of Treating Chronic Graft-Versus-Host Disease Following Allogeneic Hematopoietic Stem Cell Transplantation” (Kadmon Corporation, LLC, priority 2022, published 2026)
